{"source": "patent US20040186181A1", "about": "“Method and composition for decreasing ghrelin levels” (InterHealth Nutraceuticals, Incorporated, priority 2003, published 2004)", "key": {"[1]": {"assay": "Ingestion of HCA by rodents, serum levels", "format": "in vivo", "excerpt": "(§1) It has been shown that ingestion of compositions incorporating a salt of (−) hydroxycitric acid (HCA) leads to increased levels of serotonin. Serotonin levels, like ghrelin levels, also are related to NPY, and an increase in serotonin levels is a well-established mechanism of appetite suppression. Ingestion of HCA by persons and rodents results in a decrease in serum leptin and ghrelin levels and an increase in serum serotonin levels."}, "[2]": {"assay": "Ingestion of HCA by persons, serum levels and appetite (controlled trials)", "format": "in vivo", "excerpt": "as §1"}, "cholesterol [3]": {"system": "cholesterol", "settings": "in vivo; cited from earlier work"}, "cholesterol [4]": {"system": "cholesterol", "settings": "animal models; cited from earlier work"}, "DNA": {"system": "DNA", "settings": "cited from earlier work"}}, "data": [{"compound": "O=C(O)CC(O)(C(=O)O)C(O)C(=O)O", "note": "(single isomer, unassigned; (-)) [HCA, (−)hydroxycitric acid]", "values": [{"measurement": "serum ghrelin levels", "setting": "[1]", "value": "decrease"}, {"measurement": "serum leptin levels", "setting": "[1]", "value": "decrease"}, {"measurement": "serum serotonin levels", "setting": "[1]", "value": "increase"}, {"measurement": "appetite", "setting": "[2]; amount of food remaining on plates, controlled trials", "value": "time-dependent decrease in appetite"}, {"measurement": "serum ghrelin levels", "setting": "[2]; ingestion of HCA", "value": "decrease"}, {"measurement": "serum leptin levels", "setting": "[2]; ingestion of HCA", "value": "decrease"}, {"measurement": "serum serotonin levels", "setting": "[2]; ingestion of HCA", "value": "increase"}]}, {"compound": "O=C(O[C@@H]1Cc2c(O)cc(O)cc2O[C@@H]1c1cc(O)c(O)c(O)c1)c1cc(O)c(O)c(O)c1", "note": "[EGCG, epigallocatechin gallate]", "values": [{"measurement": "cholesterol levels", "setting": "cholesterol [3]", "value": "reduce cholesterol levels"}]}, {"compound": "Gymnemic acid", "values": [{"measurement": "cholesterol", "setting": "cholesterol [4]", "value": "lower cholesterol"}]}, {"compound": "chromium picolinate", "values": [{"measurement": "safety and toxicity", "setting": "DNA", "value": "damage DNA and be mutagenic"}]}]}
